Article PMC10819888, “Benzimidazole-Based Derivatives as Apoptotic Antiproliferative Agents: Design, Synthesis, Docking, and Mechanistic Studies” (Molecules, 2024)
Like-named read-outs stand apart in the source and are kept apart here.

Legend:
[1] = test system: Bcl-2; experiment: Bcl-2 inhibition assay; format: cell-based, human; conditions: PC-3 cell line
Method: (§1) For more details, see Supplementary Materials. […]
4.2.6. Bcl-2 inhibition assay
Mix all reagents thoroughly without foaming before use. Wash the microwells twice with approximately 300 μL Wash Buffer per well with thorough aspiration of microwell contents between washes. Take caution not to scratch the surface of the microwells.
After the last wash, empty the wells and tap microwell strips on absorbent pad or paper towel to remove excess Wash Buffer. Use the microwell strips immediately after washing or place upside down on a wet absorbent paper for not longer than 15 minutes.
Add 100 μL of Sample Diluent in duplicate to all standard wells and to the blank wells. Prepare standard (1:2 dilution) in duplicate ranging from 32 ng/mL to 0.5 ng/mL. Add 100 μL of Sample Diluent, in duplicate, to the blank wells.
Add 80 μL of Sample Diluent, in duplicate, to the sample wells. Add 20 μL of each Sample, in duplicate, to the designated wells. Add 50 μL of diluted biotin-conjugate to all wells, including the blank wells. Cover with a plate cover and incubate at room temperature, on a microplate shaker at 100 rpm if available, for 2 hours. Remove plate cover and empty the wells. Wash microwell strips 3 times as described in step 2. Add 100 μL of diluted Streptavidin-HRP to all wells, including the blank wells. Cover with a plate cover and incubate at room temperature, on a microplate shaker at 100 rpm if available, for 1 hour. Remove plate cover and empty the wells. Wash microwell strips […]
3 times as described in step 2. Proceed to the next step. Pipette 100 μl of mixed TMB Substrate Solution to all wells, including the blanks. Incubate the microwell strips at room temperature (18° to 25°C) for about 15 minutes, if available on a rotator set at 100 rpm. Avoid direct exposure to intense light. The point, at which the substrate reaction is stopped, is often determined by the ELISA reader. Many ELISA readers record absorbance only up to 2.0 O.D. Therefore, the color development within individual microwells must be watched by the person running the assay and the substrate reaction stopped before positive wells are no longer properly detectable. Stop the enzyme reaction by quickly pipetting 100 μL of Stop Solution into each well, including the blank wells. It is important that the Stop Solution is spread quickly and uniformly throughout the microwells to completely inactivate the enzyme. Results must be read immediately after the Stop Solution is added or within one hour if the microwell strips are stored at 2 - 8°C in the dark. Read absorbance of each microwell on a spectrophotometer using 450 nm as the primary wavelength.
4.3. Statistical analysis
Computerized Prism 5 program was used to statistically analyzed data using one-way ANOVA test followed by Tukey’s as post ANOVA for multiple comparison at P ≤.05.
Data were presented as mean ± SEM.

[2] = test system: caspase-3; experiment: Caspase-3 activation assay; format: cell-based, human; conditions: PC-3 cell line
Excerpt: Caspase-3 is a key caspase that cleaves numerous cell proteins, resulting in apoptosis. […] They elevated the protein caspase-3 in the PC-3 cancer cell line by around seven to nine times compared to untreated control cells.
as §1
4.2.3. Caspase-3 activation assay
Allow all reagents to reach room temperature before use. Gently mix all liquid reagents prior to use. Determine the number of 8-well strips needed for the assay. Insert these in the frame(s) for current use. Add 100 μl of the Standard Diluent Buffer to the zero standard wells. Well(s) reserved for chromogen blank should be left empty. Add 100 μl of standards and controls or diluted samples to the appropriate microtiter wells. The sample dilution chosen should be optimized for each experimental system. Tap gently on side of plate to mix. Cover wells with plate cover and incubate for 2 hours at room temperature. Thoroughly aspirate or decant solution from wells and discard the liquid, Wash wells 4 times. Pipette 100 μl of Caspase-3 (Active) Detection Antibod y solution into each well except the chromogen blank(s). Tap gently on the side of the plate to mix.
Cover plate with plate cover and incubate for 1 hour at room temperature. Thoroughly aspirate or decant solution from wells and discard the liquid, Wash well s 4 times. Add 100 μl Anti-Rabbit IgG HRP Working Solution to each well except the chromogen blank(s). Prepare the working dilution as described in Preparing IgG HRP. Cover wells with the plate cover and incubate for 30 minutes at room temperature. Thoroughly aspirate or decant solution from wells and discard the liquid. Wash wells 4 times. Add 100 μl of Stabilized Chromogen to each well. The liquid in the wells will begin to turn blue. Incubate for 30 minutes at room temperature and in the dark. The incuba tion time for chromogen substrate is often determined by the microtiter plate reader used. Many plate readers have the capacity to record a maximum optical density (O.D.) of 2.0. The O.D. values should be monitored, and the substrate reaction stopped befor e the O.D. of […]
the positive wells exceeds the limits of the instrument. The O.D. values at 450 nm can only be read after the Stop Solution has been added to each well. If using a reader that […]
100 μl of Stop Solution to each well. Tap side of plate gently to mix. The solution in the wells should change from blue to yellow. Read the absorbance of each well at 450 nm having blanked the plate reader against a chromogen blank composed of 100 μl each of Stabilized Chromogen and Stop Solution. Read the plate within 2 hours after adding the Stop Solution. Use a curve fitting software to generate the standard curve. A four-parameter algorithm provides the best standard curve fit. Read the concentrations for unknown samples and controls from the standard curve. Multiply value(s) obtained for sample(s) by the appropriate dilution factor to correct for the dilution in step 3. Samples producing signals greater than that of the highest standard should be diluted in Standard Diluent Buffer and reanalyzed. […]
A standard curve is […]
prepared from 7human Caspase-8 standard dilutions and human Caspase-8 concentration determined.

[3] = test system: Bax; experiment: Bax activation assay; format: cell-based, human; conditions: PC-3 cell line
Method: For more details, see Supplementary Materials.
4.2.5. Bax activation assay
Bring all reagents, except the human Bax-α Standard, to room temperature for at least 30 minutes prior to opening. The human Bax -α Standard solution should not be left at room temperature for more than 10 minutes. All standards, controls and samples should be run in duplicate. Refer to the Assay Layout Sheet to determine the number of wells to be used and put any remaining wells with the desiccant back into the pouch and seal the ziploc. Store unused wells at 4 °C. Pipet 100 μL of Assay Buffer into the S0 ( 0 pg/mL standard) wells. Pipet 100 μL of Standards #1 through #6 into the appropriate wells. Pipet 100 μL of the Samples into the appropriate wells. Tap the plate gently to mix the contents. Seal the plate and incubate at room temperature on a plate shaker for 1 hour at ~500 rpm. Empty the contents of the wells and wash by adding 400 μL of wash solution to every well. Repeat the wash 4 more times for a total of 5 washes. After the final wash, empty or aspirate the wells and firmly tap the plate on a lint fr ee paper towel to remove any remaining wash buffer. Pipet 100 μL of yellow Antibody into each well, except the Blank. Seal the plate and incubate at room temperature on a plate shaker for 1 hour at ~500 rpm. Empty the contents of the wells and wash by addi ng 400 μL of […]
the final wash, empty or aspirate the wells and firmly tap the plate on a lint free paper towel to remove any remaining wash buffer. Add 100 μL of blue Co njugate to each well, except the Blank. Seal the plate and incubate at room temperature on a plate shaker for 30 minutes at ~500 rpm. Empty the contents of the wells and wash by adding 400 μL of wash solution to every well. Repeat the wash 4 more times for a total of 5 washes .
After the final wash, empty or aspirate the wells and firmly tap the plate on a lint free paper towel to remove any remaining wash buffer. Pipet 100 μL of Substrate Solution into each well. Incubate for 30 minutes at room temperature on a plate shaker at ~500 rpm. Pipet 100 μL Stop Solution to each well. Blank the plate reader against the Blank wells, read the optical density at 450 nm. Calculate the average net Optical Density (OD) bound for each standard and sample by subtracting the average Blank OD from the average OD for each standard and sample. Using linear graph paper, plot the Average Net OD for each standard versus Bax concentration in each standard.
Approximate a straight line through the points. The concentration of Bax in the unknowns can be determined by interpolation. […]

[4] = test system: BRAF^V600E; parameters: method as in PMID 18942827; conditions: cited from earlier work
[5] = test system: BRAF^V600E; parameters: method as in PMID 37716963; conditions: cited from earlier work
[6] = test system: four cancer cell lines; parameters: method as in PMID 37716963; conditions: against four cancer cell lines; cited from earlier work
[7] = Figure 1, read-out: IC50 BRAF inhibitor
[8] = text b8, read-out: IC50 anti-BRAF^V600E

Structure (SMILES): CN[C@@H]1C[C@H]2O[C@@](C)([C@@H]1OC)n1c3ccccc3c3c4c(c5c6ccccc6n2c5c31)C(=O)NC4 [staurosporine, reference compound]
- Bcl-2 Conc [1]: 1.00 ng/mL
- Caspase-3 Conc [2]: 260 ± 5 pg/mL
- caspase-3 protein level [2]: 260 ± 5 pg/mL
- Bax Conc [3]: 170 pg/mL
- Bax increase compared to untreated PC-3 cancer cells [3]: 24 fold
- Bax level [3]: 170 pg/mL

Structure (SMILES): COC(=O)c1ccc2[nH]c(-c3ccc(Cl)cc3)nc2c1 [Compound 2]
- IC50 [4, 7]: 2 nM
- IC50 [4, 8]: 2000 nM

Structure (SMILES): COc1ccc(-c2nc3cc(-c4nnc(SCC(=O)Nc5ccc(C(=O)/C=C/c6ccccc6)cc5)o4)ccc3[nH]2)cc1 [Compound 4]
- IC50 [5]: 1700 ± 200 nM
- GI50 [6]: 1200 nM

Structure (SMILES): NNC(=O)c1ccc2[nH]c(-c3ccc(Cl)cc3)nc2c1 [Compound 3]
- IC50 [4, 7]: 14 nM
- IC50 [4, 8]: 14000 nM
